US8470811B2, “Substituted heterocyclylbenzylpyrazoles and use thereof” (Bayer Intellectual Property GmbH, priority 2010, dated 2013)
One block for each compound: values may come before it.

Columns and labels:
[1] = Pharmacokinetic parameters after peroral administration in rats; assay type: in vivo; conditions: for half-life: rat, plasma, po
Method: (§1) The substance to be examined was administered to animals (for example mice or rats) intravenously as a solution (for example in corresponding plasma with a small addition of DMSO or in a PEG/ethanol/water mixture), and peroral administration was effected as a solution (for example in Solutol/ethanol/water or PEG/ethanol/water mixtures) or as a suspension (e.g. in tylose), in each case via a gavage. After administration of the substance, blood was taken from the animals at fixed times. The blood was heparinized, then plasma was obtained therefrom by centrifugation. The substance was quantified analytically in the plasma via LC-MS/MS. From the plasma concentration/time plots determined in this way, using an internal standard and with the aid of a validated computer program, the pharmacokinetic parameters, such as AUC (area under the concentration/time curve), Cmax (maximum plasma concentration), t1/2 (half life), VSS (distribution volume) and CL (clearance), and the absolute and relative bioavailability F and Frel (i.v./p.o. comparison or comparison of suspension to solution after p.o. administration), were calculated.
To determine the active ingredient release from a prodrug compound, the prodrug was administered either intravenously or perorally, as described above, and the concentrations both of the prodrug and of the active ingredient released were quantified in the processed plasma.
The substance to be examined was administered perorally to rats, in each case in amounts between 1 and 3 mg/kg as a solution in Solutol/ethanol/water (40:10:50 or 40:20:40). The kinetic parameters determined for Working Example 1 are shown below by way of example for the inventive compounds [AUCnorm=dose-normalized exposure (area under the concentration/time curve)]:
The second row in this table gives the pharmacokinetic parameters for Example 1, as obtained after peroral administration of the prodrug compound from Example 15 (1 mg/kg of crystalline substance as a tylose suspension in water).

[2] = pH-dependent hydrolysis stability; assay type: physicochemical
Method: 0.3 mg of the test substance (prodrug) was weighed into a 2 ml HPLC vial, and 0.6 ml of acetonitrile or acetonitrile/DMSO mixture (with up to 20 percent by volume of DMSO) was added. To dissolve the substance, the sample vessel was placed into an ultrasound bath for approx. 10 seconds. Subsequently, 1.0 ml of the particular aqueous buffer solution was added (commercially available buffer solutions of pH 2, 4, 6.5, 8 and 10) and the sample was treated again in the ultrasound bath. Over a period of 24 hours at 37° C., 5 μl of the sample solution were analysed by HPLC every hour for its content of unchanged prodrug or active ingredient released therefrom by hydrolysis. Quantification was effected via the area percentages of the corresponding HPLC peaks.

[3] = Pharmacokinetic parameters after intravenous administration in rats; assay type: in vivo; conditions: for half-life / clearance / Vd: rat, iv, 0.3-1.0 mg/kg, solution in plasma with up to 2% DMSO; for clearance: read-out: CLplasma (converted); for Vd: read-out: VSS
Method: as §1
The substance to be examined was administered intravenously to rats, in each case in amounts between 0.3 and 1.0 mg/kg as a solution in plasma which contained up to 2% DMSO.

[4] = rats, 1-3 mg/kg, solution in Solutol/ethanol/water
[5] = rats, p.o., 1-3 mg/kg, solution in Solutol/ethanol/water

prodrug compound itself in the plasma of the rats ([1]; after p.o. administration of Example 15, 1 mg/kg tylose suspension, all times examined): not detectable
% Example 15 prodrug ([2]; pH 2, 37° C., 12 h): 89%
% Example 15 prodrug ([2]; pH 4, 37° C., 12 h): 89%
% Example 15 prodrug ([2]; pH 6.5, 37° C., 0 h): 94%
% Example 15 prodrug ([2]; pH 6.5, 37° C., 2 h): 91%
% Example 15 prodrug ([2]; pH 6.5, 37° C., 4 h): 87%
% Example 15 prodrug ([2]; pH 6.5, 37° C., 6 h): 84%
% Example 15 prodrug ([2]; pH 6.5, 37° C., 12 h): 73%
% Example 15 prodrug ([2]; pH 6.5, 37° C., 24 h): 56%
% Example 15 prodrug ([2]; pH 8, 37° C., 12 h): 64%
% Example 15 prodrug ([2]; pH 10, 37° C., 12 h): 0%
% Example 1 active ingredient ([2]; released from Example 15, pH 2, 37° C., 12 h): 6%
% Example 1 active ingredient ([2]; released from Example 15, pH 4, 37° C., 12 h): 9%
% Example 1 active ingredient ([2]; released from Example 15, pH 6.5, 37° C., 0 h): 3%
% Example 1 active ingredient ([2]; released from Example 15, pH 6.5, 37° C., 2 h): 7%
% Example 1 active ingredient ([2]; released from Example 15, pH 6.5, 37° C., 4 h): 10%
% Example 1 active ingredient ([2]; released from Example 15, pH 6.5, 37° C., 6 h): 13%
% Example 1 active ingredient ([2]; released from Example 15, pH 6.5, 37° C., 12 h): 22%
% Example 1 active ingredient ([2]; released from Example 15, pH 6.5, 37° C., 24 h): 35%
% Example 1 active ingredient ([2]; released from Example 15, pH 8, 37° C., 12 h): 30%
% Example 1 active ingredient ([2]; released from Example 15, pH 10, 37° C., 12 h): 78%
Compound: Cc1cc(-c2nc(-c3ccc(OC(F)(F)F)cc3)no2)nn1Cc1cccc(N2CC(OC(=O)CN(C)C)C2)c1 [Example 15, 1-{3-[(5-Methyl-3-{3-[4-(trifluoromethoxy)phenyl]-1,2,4-oxadiazol-5-yl}-1H-pyrazol-1-yl)methyl]phenyl}azetidin-3-yl N,N-dimethylglycinate]

half-life [3]: 8.2 h
clearance [3]: 0.72 L/h/kg
Vd [3]: 7.8 L/kg
Compound: Cc1cc(-c2nc(-c3ccc(SC(F)(F)F)cc3)no2)nn1Cc1cccc(N2CCC(O)CC2)c1 [Example 14, 1-(3-{[5-Methyl-3-(3-{4-[(trifluoromethyl)sulphanyl]phenyl}-1,2,4-oxadiazol-5-yl)-1H-pyrazol-1-yl]methyl}phenyl)piperidin-4-ol]

CLplasma ([3]; intravenous administration): 0.4 I/h/kg
half-life [3]: 30 h
Vd [3]: 6.9 L/kg
half-life [1, 4]: 29 h
AUCnorm [1, 5]: 1.9 kg·h/L
F [1, 5]: 74%
Compound: Cc1ccc(Cn2nc(-c3nc(-c4ccc(OC(F)(F)F)cc4)no3)cc2C)cc1 [Example 1 in WO 2008/141731-A2, 5-[5-methyl-1-(4-methylbenzyl)-1H-pyrazol-3-yl]-3-[4-(trifluoromethoxy)phenyl]-1,2,4-oxadiazole, reference compound]

half-life [3]: 6.8 h
clearance [3]: 1.6 L/h/kg
Vd [3]: 12 L/kg
AUCnorm ([1]; Example 1 in rat plasma after p.o. administration of prodrug Example 15, 1 mg/kg crystalline substance as tylose suspension in water): 0.35 kg·h/L
half-life [1, 4]: 12 h
AUCnorm [1, 5]: 0.43 kg·h/L
F [1, 5]: 68%
Compound: Cc1cc(-c2nc(-c3ccc(OC(F)(F)F)cc3)no2)nn1Cc1cccc(N2CC(O)C2)c1 [Example 1, 1-{3-[(5-Methyl-3-{3-[4-(trifluoromethoxy)phenyl]-1,2,4-oxadiazol-5-yl}-1H-pyrazol-1-yl)methyl]phenyl}azetidin-3-ol]
